Test results taken from patent US20260125382A1, “COMPOUNDS FOR INHIBITING OR DEGRADING CDK2 AND/OR CDK9 AND MEDICINAL USE THEREOF” (KOREA RESEARCH INSTITUTE OF CHEMICAL TECHNOLOGY, priority 2022, published 2026).

What was measured:
CDK9 = target: T1, CDK9 (Homo sapiens, UniProt P50750); test: CDK protein degradation activity (Western blotting), CDK9; assay type: cell-based; settings: MDA-MB-231 cells, 16 hours, Western blot
T1 construct: endogenous in cells; host or cells: MDA-MB-231
Method in brief: (§1)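 Breast cancer line MDA-MB-231, 16 h compound treatment (100 nM–10 μM final, three doses). Immunoblot quantification of CDK2/CDK9 versus tubulin, normalized to DMSO control.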

CDK2 = target: T2, CDK2 (Homo sapiens, UniProt P24941); test: CDK protein degradation activity (Western blotting), CDK2; assay type: cell-based; settings: MDA-MB-231 cells, 16 hours, Western blot
T2 construct: endogenous in cells; host or cells: MDA-MB-231
Method in brief: as §1

T1 sequence (P50750 whole entry): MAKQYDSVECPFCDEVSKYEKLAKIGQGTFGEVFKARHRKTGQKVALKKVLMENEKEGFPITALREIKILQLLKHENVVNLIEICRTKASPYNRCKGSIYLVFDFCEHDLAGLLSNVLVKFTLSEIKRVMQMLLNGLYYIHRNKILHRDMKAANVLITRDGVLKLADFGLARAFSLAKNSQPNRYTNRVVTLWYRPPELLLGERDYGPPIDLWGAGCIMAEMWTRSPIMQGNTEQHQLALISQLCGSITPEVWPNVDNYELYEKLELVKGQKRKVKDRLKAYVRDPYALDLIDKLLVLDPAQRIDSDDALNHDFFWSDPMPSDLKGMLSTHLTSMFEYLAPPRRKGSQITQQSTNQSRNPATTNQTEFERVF

Structure (SMILES) | Enzyme degradation CDK9 (% remaining) @ 0.1 μM (CDK9) | Enzyme degradation CDK9 (% remaining) @ 1 μM (CDK9) | Enzyme degradation CDK9 (% remaining) @ 10 μM (CDK9) | Enzyme degradation CDK2 (% remaining) @ 0.1 μM (CDK2) | Enzyme degradation CDK2 (% remaining) @ 1 μM (CDK2) | Enzyme degradation CDK2 (% remaining) @ 10 μM (CDK2)
O=C1CC[C@H](n2nnc3ccc(N4CCC5(CC4)CC(N4CCN(c6ccc(Nc7ncnc8c7ncn8[C@H]7C[C@@H](NC(=O)c8c(Cl)cccc8Cl)C7)cc6)CC4)C5)cc3c2=O)C(=O)N1 [Compound 317, 2,6-dichloro-N-((1s,3s)-3-(6-((4-(4-(7-(3-(2,6-dioxopiperidin-3-yl)-4-oxo-3,4-dihydrobenzo[d][1,2,3]triazin-6-yl)-7-azaspiro[3.5]nonan-2-yl)piperazin-1-yl)phenyl)amino)-9H-purin-9-yl)cyclobutyl)benzamide] | 0/0/0% | 0/0/0% | 0/0/0% | 10/10/10% | 10/10/10% | 10/10/10%
O=C1CC[C@H](N2C(=O)c3cccc(NCC(=O)N4CCC(CCCN5CCN(c6ccc(Nc7ncnc8c7ncn8[C@H]7C[C@@H](NC(=O)Cc8ccccc8)C7)cc6)CC5)CC4)c3C2=O)C(=O)N1 [Compound 253, N-((1s,3s)-3-(6-((4-(4-(3-(1-((2-(2,6-dioxopiperidin-3-yl)-1,3-dioxoisoindolin-4-yl)glycyl)piperidin-4-yl)propyl)piperazin-1-yl)phenyl)amino)-9H-purin-9-yl)cyclobutyl)-2-phenylacetamide] | 0/0/0% | 0/0/0% | 0/0/0% | 20/—/20% | – | 20/—/20%
O=C1CC[C@H](N2C(=O)c3cc(F)c(N4CCC(C(=O)N5CCC(CN6CCN(c7ccc(Nc8ncnc9c8ncn9C8CC(NC(=O)c9cccc(F)n9)C8)cc7)CC6)CC5)CC4)cc3C2=O)C(=O)N1 (some centres unmarked) [Compound 468, N-((1s,3s)-3-(6-((4-(4-((1-(1-(2-(2,6-dioxopiperidin-3-yl)-6-fluoro-1,3-dioxoisoindolin-5-yl)piperidin-4-carbonyl)piperidin-4-yl)methyl)piperazin-1-yl)phenyl)amino)-9H-purin-9-yl)cyclobutyl)-6-fluoropicolinamide] | 0/0/0% | 0/0/0% | 0/0/0% | 50% | 40% | 40%
Cc1cccc(C(=O)N[C@H]2C[C@@H](n3cnc4c(NCc5ccc(OCC6CCN(C(=O)COc7ccc8c(c7)C(=O)N([C@H]7CCC(=O)NC7=O)C8=O)CC6)cc5)ncnc43)C2)n1 [Compound 106, N-((1s,3s)-3-(6-((4-((1-(2-((2-(2,6-dioxopiperidin-3-yl)-1,3-dioxoisoindolin-5-yl)oxy)acetyl)piperidin-4-yl)methoxy)benzyl)amino)-9H-purin-9-yl)cyclobutyl)-6-methylpicolinamide] | 70% | 0% | 0% | 70% | 50% | 50%
Cc1cccc(C(=O)N[C@H]2C[C@@H](n3cnc4c(Nc5ccc(N6CCN(CC7CCN(C(=O)COc8ccc9c(c8)C(=O)N([C@H]8CCC(=O)NC8=O)C9=O)CC7)CC6)cc5)ncnc43)C2)n1 [Compound 90, N-((1s,3s)-3-(6-((4-(4-((1-(2-((2-(2,6-dioxopiperidin-3-yl)-1,3-dioxoisoindolin-5-yl)oxy)acetyl)piperidin-4-yl)methyl)piperazin-1-yl)phenyl)amino)-9H-purin-9-yl)cyclobutyl)-6-methylpicolinamide] | 0/0/0% | 0/0/0% | 0/0/0% | 40% | 20% | 10%
O=C1CCC(n2nnc3ccc(N4CC(N5CCN(c6ccc(Nc7ncnc8c7ncn8[C@H]7C[C@@H](NC(=O)Cc8ccccc8)C7)cc6)CC5)C4)cc3c2=O)C(=O)N1 (some centres unmarked) [Compound 346, N-((1s,3s)-3-(6-((4-(4-(1-(3-(2,6-dioxopiperidin-3-yl)-4-oxo-3,4-dihydrobenzo[d][1,2,3]triazin-6-yl)azetidin-3-yl)piperazin-1-yl)phenyl)amino)-9H-purin-9-yl)cyclobutyl)-2-phenylacetamide] | 30/30/30% | 30/30/30% | 30/30/30% | 10% | 0% | 0%
O=C1CC[C@H](n2nnc3ccc(N4CCC(CN5CCN(c6ccc(Nc7ncnc8c7ncn8C7CC(NC(=O)Cc8ccccc8)C7)cc6)CC5)CC4)cc3c2=O)C(=O)N1 (some centres unmarked) [Compound 307, N-((1s,3s)-3-(6-((4-(4-((1-(3-(2,6-dioxopiperidin-3-yl)-4-oxo-3,4-dihydrobenzo[d][1,2,3]triazin-6-yl)piperidin-4-yl)methyl)piperazin-1-yl)phenyl)amino)-9H-purin-9-yl)cyclobutyl)-2-phenylacetamide] | 0/0/0% | 0/0/0% | 0/0/0% | 0/0/0% | 0/0/0% | 0/0/0%
Cc1cccc(C(=O)NC2CC(n3cnc4c(NC5CCN(C(=O)CC6CCN(C(=O)CNc7ccc8c(c7)C(=O)N([C@H]7CCC(=O)NC7=O)C8=O)CC6)CC5)ncnc43)C2)n1 (some centres unmarked) [Compound 51, N-((1s,3s)-3-(6-((1-(2-(1-((2-(2,6-dioxopiperidin-3-yl)-1,3-dioxoisoindolin-5-yl)glycyl)piperidin-4-yl)acetyl)piperidin-4-yl)amino)-9H-purin-9-yl)cyclobutyl)-6-methylpicolinamide] | 70% | 0% | 0% | 70% | 20% | 20%
